In patent US6451332B1, “Pesticidal composition having high pesticidal ingredient vaporization rate method for controlling pests, and method for producing a pesticidal composition” (Sumitomo Chemical Company, Limited, priority 1997, dated 2002):

Experiments:
[1] = Vaporization rate of the pesticidal ingredient (silica gel trap, acetone extraction, gas chromatography); type: physicochemical; details: 10 g composition heated with 100 g calcium oxide and water; air sucked at 30 L/min for 5 min
Description: Pesticidal devices were prepared in the same method as test examples 5 and 8, and had water poured to the calcium oxide. After the reaction of calcium oxide with water started, the pesticidal device was replaced to a glass funnel with a lid. The vaporizing pesticidal ingredient was then trapped to silica gel in glass column connected to the funnel by sucking air at 30 L/min for 5 m in. Subsequently, the pesticidal ingredient present in the silica gel was extracted with acetone. The vaporization rate for the pesticidal ingredient was then measured by the quantitative analysis of gas chromatography.
A pesticidal device was prepared by placing:
1) 10 g of the pesticidal composition obtained in example 2 was placed interior to the separating wall of the container presented in FIG. 1 and
2) 100 g of calcium oxide with 1-20 mesh was placed exterior to the said separating wall but within the said container. The acquired pesticidal device was then tested for the vaporization rate by utilizing the procedure recited in test example 10.

[2] = Japanese Laid-open patent No. sho-53-109945A, table 2, sample #23; cited from earlier work

| Structure (SMILES) | vaporization rate for the pesticidal ingredient [1] [%] | vaporization rate [2] [%] |
| --- | --- | --- |
| COC(=O)c1cc(Cl)ccc1NS(=O)(=O)C(F)(F)F [2-methoxycarbonyl-4-chlorotrifluoromethanesulfonanilide] | 78.5 |  |
| CC(C)=CC1C(C(=O)OCN2C(=O)C3=C(CCCC3)C2=O)C1(C)C (stereo not drawn) [tetramethrin] | 88.1 | 63.0 |
